Data reported in PubChem BioAssay AID1259407 (Chemical Carcinogenesis Research Information System (CCRIS), 2018).
The source made the active and inactive calls. No rule for the calls is given here.

Tested on: CCRIS mutagenicity, Ames/micronucleus/aberration tests
Assay: CCRIS mutagenicity studies

Nc1ccc(-c2ccc(N)c(Cl)c2)cc1Cl was tested, and the mutagenic call (Test System: AMES SALMONELLA TYPHIMURIUM, Strain/Indicator: TA98(1,8-DNP6), Metabolic Activation: NONE, Method: STANDARD PLATE) was “active; positive”, the mutagenic call (Test System: AMES SALMONELLA TYPHIMURIUM, Strain/Indicator: TA98(1,8-DNP6), Metabolic Activation: S-9, Method: STANDARD PLATE) was “active; positive” and the mutagenic call (Test System: AMES SALMONELLA TYPHIMURIUM, Strain/Indicator: TA98/1,8-DNP6, Metabolic Activation: HAMSTER, LIVER, S-9, Method: PREINCUBATION) was “active; positive”. The mutagenic call (Test System: AMES SALMONELLA TYPHIMURIUM, Strain/Indicator: TA98/1,8-DNP6, Metabolic Activation: NONE, Method: PREINCUBATION) was “active; positive”, the mutagenic call (Test System: AMES SALMONELLA TYPHIMURIUM, Strain/Indicator: TA98, Metabolic Activation: HAMSTER, LIVER, S-9, AROCLOR 1254, Method: PREINCUBATION) was “active; positive” and the mutagenic call (Test System: AMES SALMONELLA TYPHIMURIUM, Strain/Indicator: TA98, Metabolic Activation: HAMSTER, LIVER, S-9, Method: PREINCUBATION) was “active; positive”. The mutagenic call (Test System: AMES SALMONELLA TYPHIMURIUM, Strain/Indicator: TA98, Metabolic Activation: MOUSE, LIVER, S-9, Method: STANDARD PLATE) was “active; positive”, the mutagenic call (Test System: AMES SALMONELLA TYPHIMURIUM, Strain/Indicator: TA98, Metabolic Activation: NONE, Method: PREINCUBATION) was “active; positive” and the mutagenic call (Test System: AMES SALMONELLA TYPHIMURIUM, Strain/Indicator: TA98, Metabolic Activation: NONE, Method: STANDARD PLATE) was “active; positive”. For the same compound, the mutagenic call (Test System: AMES SALMONELLA TYPHIMURIUM, Strain/Indicator: TA98, Metabolic Activation: RAT LIVER S-9, AROCLOR 1254, Method: PREINCUBATION) was “active; positive”, the mutagenic call (Test System: AMES SALMONELLA TYPHIMURIUM, Strain/Indicator: TA98, Metabolic Activation: RAT, LIVER, S-9, AROCLOR 1254, Method: PREINCUBATION) was “active; positive” and the mutagenic call (Test System: AMES SALMONELLA TYPHIMURIUM, Strain/Indicator: TA98, Metabolic Activation: RAT, LIVER, S-9, AROCLOR 1254, Method: STANDARD PLATE) was “active; positive”. The mutagenic call (Test System: AMES SALMONELLA TYPHIMURIUM, Strain/Indicator: TA98, Metabolic Activation: S-9, Method: STANDARD PLATE) was “active; positive”, the mutagenic call (Test System: AMES SALMONELLA TYPHIMURIUM, Strain/Indicator: TA100, Metabolic Activation: HAMSTER, LIVER, S-9, AROCLOR 1254, Method: PREINCUBATION) was “active; positive” and the mutagenic call (Test System: AMES SALMONELLA TYPHIMURIUM, Strain/Indicator: TA100, Metabolic Activation: NONE, Method: PREINCUBATION) was “inactive; negative”. For the same compound, the mutagenic call (Test System: AMES SALMONELLA TYPHIMURIUM, Strain/Indicator: TA100, Metabolic Activation: NONE, Method: STANDARD PLATE) was “inactive; negative”, the mutagenic call (Test System: AMES SALMONELLA TYPHIMURIUM, Strain/Indicator: TA100, Metabolic Activation: RAT LIVER S-9, AROCLOR 1254, Method: PREINCUBATION) was “active; positive” and the mutagenic call (Test System: AMES SALMONELLA TYPHIMURIUM, Strain/Indicator: TA100, Metabolic Activation: RAT, LIVER, S-9, AROCLOR 1254, Method: PREINCUBATION) was “active; positive”. The mutagenic call (Test System: AMES SALMONELLA TYPHIMURIUM, Strain/Indicator: TA100, Metabolic Activation: RAT, LIVER, S-9, AROCLOR 1254, Method: STANDARD PLATE) was “active; positive”, the mutagenic call (Test System: AMES SALMONELLA TYPHIMURIUM, Strain/Indicator: TA100, Metabolic Activation: S-9, Method: STANDARD PLATE) was “active; positive” and the mutagenic call (Test System: AMES SALMONELLA TYPHIMURIUM, Strain/Indicator: TA1535, Metabolic Activation: HAMSTER, LIVER, S-9, AROCLOR 1254, Method: PREINCUBATION) was “inactive; negative”. For the same compound, the mutagenic call (Test System: AMES SALMONELLA TYPHIMURIUM, Strain/Indicator: TA1535, Metabolic Activation: NONE, Method: PREINCUBATION) was “inactive; negative”, the mutagenic call (Test System: AMES SALMONELLA TYPHIMURIUM, Strain/Indicator: TA1535, Metabolic Activation: RAT, LIVER, S-9, AROCLOR 1254, Method: PREINCUBATION) was “inactive; negative” and the mutagenic call (Test System: AMES SALMONELLA TYPHIMURIUM, Strain/Indicator: TA1535, Metabolic Activation: RAT, LIVER, S-9, AROCLOR 1254, Method: STANDARD PLATE) was “active; positive”. For the same compound, the mutagenic call (Test System: AMES SALMONELLA TYPHIMURIUM, Strain/Indicator: TA1537, Metabolic Activation: HAMSTER, LIVER, S-9, AROCLOR 1254, Method: PREINCUBATION) was “active; positive”, the mutagenic call (Test System: AMES SALMONELLA TYPHIMURIUM, Strain/Indicator: TA1537, Metabolic Activation: NONE, Method: PREINCUBATION) was “inactive; negative” and the mutagenic call (Test System: AMES SALMONELLA TYPHIMURIUM, Strain/Indicator: TA1537, Metabolic Activation: RAT, LIVER, S-9, AROCLOR 1254, Method: PREINCUBATION) was “active; positive”. The mutagenic call (Test System: AMES SALMONELLA TYPHIMURIUM, Strain/Indicator: TA1537, Metabolic Activation: RAT, LIVER, S-9, PHENOBARBITAL, Method: STANDARD PLATE) was “active; positive”, the mutagenic call (Test System: AMES SALMONELLA TYPHIMURIUM, Strain/Indicator: TA1538, Metabolic Activation: HAMSTER, LIVER, S-9, Method: STANDARD PLATE) was “active; positive” and the mutagenic call (Test System: AMES SALMONELLA TYPHIMURIUM, Strain/Indicator: TA1538, Metabolic Activation: NONE, Method: STANDARD PLATE) was “active; positive”. For the same compound, the mutagenic call (Test System: AMES SALMONELLA TYPHIMURIUM, Strain/Indicator: TA1538, Metabolic Activation: RAT, LIVER, S-9, AROCLOR 1254, Method: STANDARD PLATE) was “active; positive”, the mutagenic call (Test System: AMES SALMONELLA TYPHIMURIUM, Strain/Indicator: TA1538, Metabolic Activation: RAT, LIVER, S-9, PHENOBARBITAL, Method: STANDARD PLATE) was “active; positive” and the mutagenic call (Test System: Ames Salmonella typhimurium, Strain/Indicator: TA102, Metabolic Activation: None, Method: Preincubation) was “active; positive”. For the same compound, the mutagenic call (Test System: Ames Salmonella typhimurium, Strain/Indicator: TA102, Metabolic Activation: Rat, liver, S-9, Aroclor 1254, 4%, Method: Preincubation) was “active; positive” and the mutagenic call (Test System: UDS HUMAN FIBROBLASTS, Strain/Indicator: THY INCORP (NON-S-PHASE), Metabolic Activation: NONE, Method: LIQUID SCINTILLATION COUNTING) was “active; positive”.

For OC1c2ccc3nc4c(ccc5ccccc54)cc3c2C2OC2C1O (stereo not given), the mutagenic call (Test System: AMES SALMONELLA TYPHIMURIUM, Strain/Indicator: TA98, Metabolic Activation: RAT, LIVER, AROCLOR 1254, NADPH GENERATING SYSTEM, Method: STANDARD PLATE) was “inactive; negative”, the mutagenic call (Test System: AMES SALMONELLA TYPHIMURIUM, Strain/Indicator: TA100, Metabolic Activation: RAT, LIVER, AROCLOR 1254, NADPH GENERATING SYSTEM, Method: STANDARD PLATE) was “inactive; negative” and the mutagenic call (Test System: CHINESE HAMSTER V-79, Strain/Indicator: V-79/8-AZAGUANINE, Method: STANDARD PLATE) was “inactive; negative”.

For CCCCCC(C)=O, the mutagenic call (Test System: CHINESE HAMSTER V-79, Strain/Indicator: V-79 (HPRT)/6-THIOGUANINE, Metabolic Activation: NONE, Method: STANDARD PLATE) was “inactive; negative” and the mutagenic call (Test System: CHINESE HAMSTER V-79, Strain/Indicator: V-79 (HPRT)/6-THIOGUANINE, Metabolic Activation: RAT LIVER S-9, Method: STANDARD PLATE) was “inactive; negative”.
